# Assay results as given in patent US20150210977A1, “BACTERIUM WITH INCREASED TOLERANCE TO BUTYRIC ACIDS” (LanzaTech New Zealand Limited, priority 2014, published 2015).
# Key:
# Type in all cases: cell-based, Clostridium autoethanogenum
# [1] = system: C. autoethanogenum LZ1561; test: Growth of C. autoethanogenum LZ1561 challenged with 2-HIBA in serum bottles; design: growth rate μ, Set 1 / growth rate μ, Set 2: unit not given here
# Procedure: Clostridium strains were grown at 37° C. in PETC media at pH 5.6 using standard anaerobic techniques (Hungate, Meth Microbiol, 3B: 117-132, 1969; Wolfe, Adv Microb Physiol, 6: 107-146, 1971). Fructose (heterotrophic growth) or 30 psi CO-containing steel mill gas (collected from New Zealand Steel site in Glenbrook, NZ; composition: 44% CO, 32% N2, 22% CO2, 2% H2) in the headspace (autotrophic growth) was used as substrate. For solid media, 1.2% bacto agar (BD, Frankton Lakes, N.J. 07417, USA) was added.
# Two sets of serum bottle experiments were performed with media containing 0, 0.5, 1, 1.5, 2, 3, or 4 g/L of 2-HIBA. An average of optical density (OD) data from both sets of growth experiments was plotted. Data points outside the visually observed exponential growth phase were removed and the growth rate (g) for each concentration of 2-HIBA was calculated by fitting an exponential trend line (FIG. 1).
# FIGS. 1A-1D show the growth rates of C. autoethanogenum challenged with different concentrations of 2-HIBA. FIG. 1A and FIG. 1B show the respective difference in growth curves for the two sets of growth experiments (n=3). FIG. 1C and FIG. 1D show exponentially fitted lines corresponding to FIG. 1A and FIG. 1B, respectively. […] To extract the growth rate from the trend line equations, the following equation was used OD=OD0Xe^μt, where OD=y, t=x in the trend line equations, providing the calculated growth rates listed below.
# The growth rates (μ) were plotted in Prism6 (GraphPad, USA) as μ vs log10 [2-HIBA] to determine the concentration of 2-HIBA at which the growth rate of C. autoethanogenum is 50% (FIG. 2).
# [2] = system: C. autoethanogenum LZ1561; test: Selection of a 2-HIBA tolerant strain in continuous fermentation
# Procedure: Microorganisms unable to cope with the increasing 2-HIBA concentration were diluted out from the fermentation system, while microorganisms with improved tolerance were retained. Glycerol stocks were collected as the culture resistance improved. CSTRs were inoculated with C. autoethanogenum LZ1561. The reactors were started in batch mode and turned to continuous mode at a dilution rate of 1.5 after approximately 40 hours. Once operationally stable, 2-HIBA (1.1 g/L) was added to the feeding media which was run into the reactor at a dilution rate of 1.5. […] During selection in continuous fermentation, the 2-HIBA concentration tolerated by the C. autoethanogenum LZ1561 culture was reproducibly raised from 1.1 g/L to 6.7 g/L ([…]) by slowly increasing the 2-HIBA concentration over a period of 85 days.
# C. autoethanogenum = test: Toxicity of 2-HIBA under continuous fermentation (CSTR), gas uptake and metabolite monitoring; details: early effect on gas uptake and metabolite production
# Excerpt: CSTRs were inoculated with C. autoethanogenum and brought to a stable optical density (OD600 nm) and dilution rate (D˜1.5). For all fermentations in CSTRs, chemically defined media was used containing no yeast extract. Parameters were monitored on an hourly basis, including metabolites (measured by HPLC) and gas composition in/out (measured by GC). Early effects of 2-HIBA on culture metabolism included a measurable reduction in CO and/or H2 utilization rates, followed by a decline in metabolite production rate. Two CSTRs were run in parallel and received the same inoculum and media in flow rate and composition. The reactors were turned continuous at day 0.9 with media containing 1.5 g/L 2-HIBA at a dilution rate of 1.5. […] The process was then repeated on the same culture in one reactor while the other served as a control. Following introduction of 2-HIBA, the metabolic profile of C. autoethanogenum shifted to favor 2,3-butanediol production, capping ethanol production. Biomass production was reduced under increasing inflow from 2-HIBA and overall metabolic levels drop caused by reduced CO and H2 uptake. By removing 2-HIBA from the inflow media, gas uptake and metabolic production is stabilized. This indicates a reversible reaction to 2-HIBA. The average effect level of 2-HIBA in a continuous CSTR system was calculated as 1.15 g/L.
compound,measurement,setting,value
"CC(C)(O)C(=O)O [2-HIBA, 2-hydroxyisobutyric acid]",IC50,"[1]; Clostridium autoethanogenum, LZ1561, μ vs log10 [2-HIBA], read-out: IC50 (concentration of 2-HIBA at which the growth rate is 50%)",2200 µg/mL
same,"growth rate μ, Set 1",[1]; [2-HIBA] 0.5 g/L,0.096
same,"growth rate μ, Set 2",[1]; [2-HIBA] 0.5 g/L,0.104
same,"growth rate μ, Set 1",[1]; [2-HIBA] 1 g/L,0.092
same,"growth rate μ, Set 2",[1]; [2-HIBA] 1 g/L,0.105
same,"growth rate μ, Set 1",[1]; [2-HIBA] 1.5 g/L,0.078
same,"growth rate μ, Set 2",[1]; [2-HIBA] 1.5 g/L,0.089
same,"growth rate μ, Set 1",[1]; [2-HIBA] 2 g/L,0.082
same,"growth rate μ, Set 2",[1]; [2-HIBA] 2 g/L,0.090
same,"growth rate μ, Set 1",[1]; [2-HIBA] 3 g/L,0.001
same,"growth rate μ, Set 2",[1]; [2-HIBA] 3 g/L,0.004
same,"growth rate μ, Set 1",[1]; [2-HIBA] 4 g/L,0.004
same,"growth rate μ, Set 2",[1]; [2-HIBA] 4 g/L,−0.005
same,effect on growth,[1]; concentration up to 1 g/L of 2-HIBA,little or no effect
same,effect on growth,[1]; over 2 g/L of 2-HIBA,acute
same,effect on growth,[1]; up to a concentration of 2 g/L of 2-HIBA,relatively small effect
same,increase in tolerance,[2]; 1.1 g/L to 6.7 g/L during selection in continuous fermentation,600%
same,2-HIBA concentration tolerated by the culture,[2]; C. autoethanogenum LZ1561 culture at start of selection,1.1 g/L
same,2-HIBA concentration tolerated by the culture,[2]; after slowly increasing the 2-HIBA concentration over a period of 85 days,6.7 g/L
same,average effect level of 2-HIBA in a continuous CSTR system,C. autoethanogenum,1.15 g/L
